# Several values for one entry are separate records, joined by “and”; a condition that tells them apart may be missing. Equal values may be shown once. Entries after “also recorded” stand apart in the source; their conditions may differ. Read-outs that look alike come from different tables or passages of the source. Numbered stars: 1 amine (or outer) side, 2 acyl side, 3 side chain; on linkers, the order of the positions; unused ones are H or OH. Square brackets hold non-standard residues; d marks the D form. Peptide text beside a SMILES is read from it. * marks the point of attachment. X1 = O=C(CCC(=O)[*:2])OCC(N[*:1])C(O)c1ccc([N+](=O)[O-])cc1; Dichloroacetyl = O=C(C(Cl)Cl)*
# Legend:
# [1] = tested on: wild type E. coli strain (K-12); assay: Bacteria culture and inhibitory activity assay (MIC); type: cell-based; conditions: for MIC: Escherichia coli
# Method: Bacteria culture and inhibitory activity assay: Single esterase (BioH, YjfP, FrsA, YbfF, YfbB, YqiA, YeiG, or and YpfH) deletion mutants were purchased from Dharmacon Horizon Discovery (Cambridge, United Kingdom). […] Compounds were added at different concentrations.
# Compounds were added at different concentrations.
# [2] = tested on: HS-5 cells; assay: Cell viability assay (MTT), HS-5; type: cell-based, human; conditions: 24 hours; for cytotoxicity / cell viability of HS-5 cells: 20 μM; for cytotoxicity of control compounds against HS-5 cells: around MIC values (0.5 μM)
# [3] = tested on: carboxylesterase (CES); assay: Hydrolysis assay with exogenous carboxylesterase; type: in vitro ADME, porcine; conditions: CES 0.1 U/mL
# From the text: Experimental materials and instruments. All the solvents and chemical reagents were used directly as received from the commercial sources without further purification unless otherwise stated. Carboxylesterase (CES) from porcine liver was purchased from Sigma-Aldrich (lyophilized powder, >15 units/mg solid; Unit definition: One unit will hydrolyze 1.0 μmole of ethyl butyrate to butyric acid and ethanol per min at pH 8.0 at 25). CLsuGG, CLsuG, CLsuGGG were purified with Agilent 1100 Series Liquid Chromatography system, equipped with an XTerra C18 RP column and Variable Wavelength detector.
# Hydrolysis assay: Wild-type E. coli strains (K12) were harvested by centrifugation and the cell pellets were lysed using a sonic device. After centrifugation, the supernatant was collected and the proteinase inhibitor was added in the E. coli lysate. The concentration of E. coli lysate was normalized by the fluorescence intensity of 5-carboxyfluorescein diacetate (CFDA). […] Then the fluorescence was tested to draw a fluorescence-concentration dependent curve for figuring out the concentration of E. coli lysates. Solutions of CLsuGG (200 μM) were prepared in pH 7.4 PBS buffer. […] At different time points, the solution was taken out, extracted with an equal volume of butanol, concentrated to dryness, and resuspended with butanol for HPLC analysis. HPLC was performed with Agilent 1100 Series Liquid Chromatograph equipped with an XTerra C18 reverse phase column and Variable Wavelength Detector. The hydrolyzed mixture resuspended in 1 mL of butanol was injected to HPLC mobile phase (0.1% trifluoroacetic acid, the starting ratio: 10% acetonitrile and 90% water). The system was run at a flow rate of 10 mL/min.
# [4] = Stability in human serum (LC-MS); type: in vitro ADME; conditions: 200 μM, 37° C.; for Compounds remaining (%) 0 h / Compounds remaining (%) 2 h / Compounds remaining (%) 24 h: human serum
# [5] = tested on: E. coli (K-12) lysate; assay: Hydrolysis assay with E. coli lysate; type: in vitro ADME; conditions: 24 hours after addition of E. coli lysate
# Method: (§1) Hydrolysis assay: Wild-type E. coli strains (K12) were harvested by centrifugation and the cell pellets were lysed using a sonic device. After centrifugation, the supernatant was collected and the proteinase inhibitor was added in the E. coli lysate. The concentration of E. coli lysate was normalized by the fluorescence intensity of 5-carboxyfluorescein diacetate (CFDA). Briefly, different concentrations of CES (4 U/mL, 2 U/mL, 1 U/mL, 0.5 U/mL, 0.25 U/mL, 0.125 U/mL, 0.0625 U/mL, 0.03125 U/mL, 0.015625 U/mL and 0 U/mL) and different amount of E. coli lysates were prepared in PBS buffer. Followed by, 25 μM of CFDA was added in and incubated at room temperature for 1 hour. Then the fluorescence was tested to draw a fluorescence-concentration dependent curve for figuring out the concentration of E. coli lysates. Solutions of CLsuGG (200 μM) were prepared in pH 7.4 PBS buffer. CES and E. coli lysate (0.1 U/mL) were added and incubated with above solutions at 37° C. for 24 hours. At different time points, the solution was taken out, extracted with an equal volume of butanol, concentrated to dryness, and resuspended with butanol for HPLC analysis. HPLC was performed with Agilent 1100 Series Liquid Chromatograph equipped with an XTerra C18 reverse phase column and Variable Wavelength Detector. The hydrolyzed mixture resuspended in 1 mL of butanol was injected to HPLC mobile phase (0.1% trifluoroacetic acid, the starting ratio: 10% acetonitrile and 90% water). The system was run at a flow rate of 10 mL/min.
# as §1, with “analysis.” for “analysis. HPLC was performed with Agilent 1100 Series Liquid Chromatograph equipped with an XTerra C18 reverse phase column and Variable Wavelength Detector. The hydrolyzed mixture resuspended in 1 mL of butanol was injected to HPLC mobile phase (0.1% trifluoroacetic acid, the starting ratio: 10% acetonitrile and 90% water). The system was run at a flow rate of 10 mL/min.”
# [6] = wild type E. coli (K-12), read-out: MIC
# [7] = wild type E. coli (K-12), read-out: MIC (μg/mL)
smiles,measurement,setting,value
"O=C(N[C@H](CO)[C@H](O)c1ccc([N+](=O)[O-])cc1)C(Cl)Cl [CL, chloramphenicol, reference compound]",MIC,[1]; [6],20 µM
same,MIC,[1]; [7],6.5 µg/mL
same,cytotoxicity / cell viability of HS-5 cells,[2],reduced the viability
"O=C(O)CCC(=O)OC[C@@H](NC(=O)C(Cl)Cl)[C@H](O)c1ccc([N+](=O)[O-])cc1 [CLsu, chloramphenicol succinate, reference compound]",hydrolysis with addition of CES,[3],hardly undergoes hydrolysis
same,conversion in human serum,[4]; after 24 hours,less than 15%
same,Compounds remaining (%) 0 h,[4],100%
same,Compounds remaining (%) 2 h,[4],96.2%
same,Compounds remaining (%) 24 h,[4],87.0%
same,MIC,[1]; read-out: MIC value before addition of exogenous CES,90 µM
same,MIC,"[1]; FIG. 3B, with exogenous carboxylesterase (CES), read-out: MIC value after addition of exogenous CES",49 µM
same,MIC,[1]; [6],> 200 µM
same,MIC,[1]; [7],> 84.6 µg/mL
same,MIC (μM),[1]; wild type E. coli (K-12),>200 µM
same,MIC (μg/mL),[1]; wild type E. coli (K-12),>84.6 µg/mL
same,cytotoxicity / cell viability of HS-5 cells,[2],largely innocuous; also recorded: lower cytotoxicity than CL
same,fraction hydrolyzed,[5],less than 20%
O=C(O)CNC(=O)CCC(=O)OCC(NC(=O)C(Cl)Cl)C(O)c1ccc([N+](=O)[O-])cc1 (stereo not drawn) [CLsuG],MIC (μM),[1]; wild type E. coli (K-12),>200 µM
same,MIC (μg/mL),[1]; wild type E. coli (K-12),> 95.8 µg/mL and 95.8 µg/mL
CC(C)CC(NC(=O)CNC(=O)CCC(=O)OCC(NC(=O)C(Cl)Cl)C(O)c1ccc([N+](=O)[O-])cc1)C(=O)O (stereo not drawn) [Compound 1a],MIC (μM),[1]; wild type E. coli (K-12),20 µM
CC(NC(=O)CNC(=O)CCC(=O)OCC(NC(=O)C(Cl)Cl)C(O)c1ccc([N+](=O)[O-])cc1)C(=O)O (stereo not drawn) [Compound 1b],MIC (μM),[1]; wild type E. coli (K-12),20 µM
CNC(=O)CNC(=O)CNC(=O)CCC(=O)OCC(NC(=O)C(Cl)Cl)C(O)c1ccc([N+](=O)[O-])cc1 (stereo not drawn) [Compound 1e],MIC (μM),[1]; wild type E. coli (K-12),20 µM
O=C(O)CNC(=O)CNC(=O)CNC(=O)CNC(=O)CCC(=O)OCC(NC(=O)C(Cl)Cl)C(O)c1ccc([N+](=O)[O-])cc1 (stereo not drawn) [Compound 1f] (Dichloroacetyl-[X1]GGGG-OH),MIC (μM),[1]; wild type E. coli (K-12),20 µM
CC(NC(=O)C(C)NC(=O)CCC(=O)OCC(NC(=O)C(Cl)Cl)C(O)c1ccc([N+](=O)[O-])cc1)C(=O)O (stereo not drawn) [Compound 1g],MIC (μM),[1]; wild type E. coli (K-12),80 µM
CC(NC(=O)C(C)NC(=O)CCC(=O)OCC(NC(=O)C(Cl)Cl)C(O)c1ccc([N+](=O)[O-])cc1)C(=O)O (stereo not drawn) [Compound 1h],MIC (μM),[1]; wild type E. coli (K-12),100 µM
CC(NC(=O)C(C)NC(=O)C(C)NC(=O)CCC(=O)OCC(NC(=O)C(Cl)Cl)C(O)c1ccc([N+](=O)[O-])cc1)C(=O)O (stereo not drawn) [Compound 1i],MIC (μM),[1]; wild type E. coli (K-12),80 µM
CC(NC(=O)C(C)NC(=O)C(C)NC(=O)CCC(=O)OCC(NC(=O)C(Cl)Cl)C(O)c1ccc([N+](=O)[O-])cc1)C(=O)O (stereo not drawn) [Compound 1j],MIC (μM),[1]; wild type E. coli (K-12),100 µM
O=C(CCC(=O)OCC(NC(=O)C(Cl)Cl)C(O)c1ccc([N+](=O)[O-])cc1)NCC(=O)NCC(=O)NC(Cc1ccccc1)C(=O)O (stereo not drawn) [Compound 1k],Compounds remaining (%) 0 h,[4],100%
same,Compounds remaining (%) 2 h,[4],0%
same,Compounds remaining (%) 24 h,[4],0%
same,MIC (μM),[1]; wild type E. coli (K-12),20 µM
O=C(O)CNC(=O)C(Cc1ccccc1)NC(=O)CNC(=O)CCC(=O)OCC(NC(=O)C(Cl)Cl)C(O)c1ccc([N+](=O)[O-])cc1 (stereo not drawn) [Compound 1m],MIC (μM),[1]; wild type E. coli (K-12),20 µM
O=C(O)CNC(=O)CNC(=O)C(Cc1ccccc1)NC(=O)CCC(=O)OCC(NC(=O)C(Cl)Cl)C(O)c1ccc([N+](=O)[O-])cc1 (stereo not drawn) [Compound 1n],MIC (μM),[1]; wild type E. coli (K-12),80 µM
O=C(CCC(=O)OCC(NC(=O)C(Cl)Cl)C(O)c1ccc([N+](=O)[O-])cc1)NCC(=O)NCC(=O)NC(Cc1ccccc1)C(=O)NC(Cc1ccccc1)C(=O)O (stereo not drawn) [Compound 1o] (Dichloroacetyl-[X1]GGFF-OH; configuration not given here),Compounds remaining (%) 0 h,[4],100%
same,Compounds remaining (%) 2 h,[4],7.2%
same,Compounds remaining (%) 24 h,[4],0%
same,MIC (μM),[1]; wild type E. coli (K-12),20 µM
O=C(O)CNC(=O)CNC(=O)CNC(=O)CNC(=O)CNC(=O)CCC(=O)OCC(NC(=O)C(Cl)Cl)C(O)c1ccc([N+](=O)[O-])cc1 (stereo not drawn) [Compound 1q] (Dichloroacetyl-[X1]GGGGG-OH),MIC (μM),[1]; wild type E. coli (K-12),40 µM
N=C(N)NCCCC(NC(=O)C(CCCNC(=N)N)NC(=O)CCC(=O)OCC(NC(=O)C(Cl)Cl)C(O)c1ccc([N+](=O)[O-])cc1)C(=O)O (stereo not drawn) [Compound 2a],MIC (μM),[1]; wild type E. coli (K-12),200 µM
N=C(N)NCCCC(NC(=O)C(CCCNC(=N)N)NC(=O)C(Cc1ccccc1)NC(=O)C(Cc1ccccc1)NC(=O)CCC(=O)OCC(NC(=O)C(Cl)Cl)C(O)c1ccc([N+](=O)[O-])cc1)C(=O)O (stereo not drawn) [Compound 2d] (Dichloroacetyl-[X1]FFRR-OH; configuration not given here),MIC (μM),[1]; wild type E. coli (K-12),200 µM
NCCCCC(NC(=O)C(CCCCN)NC(=O)C(Cc1ccccc1)NC(=O)C(Cc1ccccc1)NC(=O)CCC(=O)OCC(NC(=O)C(Cl)Cl)C(O)c1ccc([N+](=O)[O-])cc1)C(=O)O (stereo not drawn) [Compound 2e] (Dichloroacetyl-[X1]FFKK-OH; configuration not given here),MIC (μM),[1]; wild type E. coli (K-12),200 µM
NCCCCC(NC(=O)CNC(=O)CCC(=O)OCC(NC(=O)C(Cl)Cl)C(O)c1ccc([N+](=O)[O-])cc1)C(=O)O (stereo not drawn) [Compound 2f],Compounds remaining (%) 0 h,[4],100%
same,Compounds remaining (%) 2 h,[4],0%
same,Compounds remaining (%) 24 h,[4],0%
same,MIC (μM),[1]; wild type E. coli (K-12),20 µM
O=C(O)CCC(NC(=O)C(CCC(=O)O)NC(=O)CCC(=O)OCC(NC(=O)C(Cl)Cl)C(O)c1ccc([N+](=O)[O-])cc1)C(=O)O (stereo not drawn) [Compound 2g],MIC (μM),[1]; wild type E. coli (K-12),>200 µM
O=C(O)CC(NC(=O)C(CC(=O)O)NC(=O)CCC(=O)OCC(NC(=O)C(Cl)Cl)C(O)c1ccc([N+](=O)[O-])cc1)C(=O)O (stereo not drawn) [Compound 2h],MIC (μM),[1]; wild type E. coli (K-12),>200 µM
O=C(O)CC(NC(=O)C(CC(=O)O)NC(=O)CCC(=O)OCC(NC(=O)C(Cl)Cl)C(O)c1ccc([N+](=O)[O-])cc1)C(=O)O (stereo not drawn) [Compound 2i],MIC (μM),[1]; wild type E. coli (K-12),200 µM
O=C(O)CC(NC(=O)CNC(=O)CCC(=O)OCC(NC(=O)C(Cl)Cl)C(O)c1ccc([N+](=O)[O-])cc1)C(=O)O (stereo not drawn) [Compound 2j],MIC (μM),[1]; wild type E. coli (K-12),20 µM
O=C(CCC(=O)OCC(NC(=O)C(Cl)Cl)C(O)c1ccc([N+](=O)[O-])cc1)NC(Cc1ccccc1)C(=O)NC(Cc1ccccc1)C(=O)O (stereo not drawn) [Compound 3a],MIC (μM),[1]; wild type E. coli (K-12),100 µM
O=C(O)c1cn(C2CC2)c2cc(N3CCNCC3)c(F)cc2c1=O [ciprofloxacin],cytotoxicity of control compounds against HS-5 cells,[2],relatively low cytotoxicity
CC[C@H]1OC(=O)[C@H](C)C(=O)[C@H](C)[C@@H](O[C@@H]2O[C@H](C)C[C@H](N(C)C)[C@H]2O)[C@](C)(OC)C[C@@H](C)C(=O)[C@H](C)[C@H]2N(CCCCn3cnc(-c4cccnc4)c3)C(=O)O[C@]12C [telithromycin],cytotoxicity of control compounds against HS-5 cells,[2],relatively low cytotoxicity
